{"source": "paper PMC4666306", "about": "(European journal of medicinal chemistry, 2015)", "key": {"[1]": {"tested_on": "BaF3 cells transformed with FLT3-ITD containing activation loop (D835V) mutation", "details": "48 h post treatment"}, "[2]": {"tested_on": "BaF3 cells transformed with FLT3-ITD containing gatekeeper (F691L) mutation", "details": "48 h post treatment"}}}
{"smiles": "Fc1ccc(-c2cnc3cc(-c4ccco4)ccn23)cc1", "note": "[Compound 21, 3-(4-Fluorophenyl)-7-(furan-2-yl)imidazo[1,2-a]pyridine]", "values": [{"measurement": "GI50 +ITD D835V", "setting": "[1]", "value": "ineffective"}, {"measurement": "GI50 +ITD F691L", "setting": "[2]", "value": "ineffective"}]}
